Experimental data as given in ChEMBL document CHEMBL1201862, “PubChem BioAssay data set” (2004).
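Compound exposure: 48 hours, 5 concentrations, 96-well plates. GI50 marks 50% less growth.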 Activity calls are given as the source filed them. Cut-off read from the data, not from the text of the source: active = GI50 up to about 1.1 µM and inactive = higher.

Legend:
Test in all cases: NCI-60 cell line screen, 48 h
EKVX = tested on: EKVX
K562 = tested on: K562
KM12 = tested on: KM12
NCI-H226 = tested on: NCI-H226
OVCAR-3 = tested on: OVCAR-3
OVCAR-5 = tested on: OVCAR-5
SF-268 = tested on: SF-268
SK-MEL-5 = tested on: SK-MEL-5
SK-OV-3 = tested on: SK-OV-3
SNB-19 = tested on: SNB-19
SW-620 = tested on: SW-620
TK-10 = tested on: TK-10
UACC-257 = tested on: UACC-257
UACC-62 = tested on: UACC-62
HOP-92 = tested on: HOP-92

Measured: GI50

COc1ccc(S(=O)(=O)N[C@H](C(=O)O)c2ccccc2)cc1
inactive: EKVX > 100 µM | K562 > 100 µM | KM12 > 100 µM | NCI-H226 > 100 µM | OVCAR-3 > 100 µM | OVCAR-5 > 100 µM | SF-268 > 100 µM | SK-MEL-5 > 100 µM | SK-OV-3 > 100 µM | SNB-19 > 100 µM | SW-620 > 100 µM | TK-10 > 100 µM | UACC-257 > 100 µM | UACC-62 > 100 µM

CC(C)c1cc2c(O)c(c1)Cc1cc(C(C)C)cc(c1O)Cc1cc(C(C)C)cc(c1O)Cc1cc(C(C)C)cc(c1O)Cc1cc(C(C)C)cc(c1O)Cc1cc(C(C)C)cc(c1O)C2
inactive: EKVX > 100 µM | HOP-92 > 100 µM | K562 > 100 µM | KM12 > 100 µM | OVCAR-3 > 100 µM | OVCAR-5 > 100 µM | SF-268 > 100 µM | SK-MEL-5 > 100 µM | SNB-19 > 100 µM | SW-620 > 100 µM | TK-10 > 100 µM | UACC-257 > 100 µM | UACC-62 > 100 µM

O=C(/C=C/c1ccccc1F)c1ccc([N+](=O)[O-])cc1
inactive: EKVX 38.5 µM | HOP-92 16.3 µM | K562 5.77 µM | OVCAR-3 24.6 µM | SF-268 27.2 µM | SK-OV-3 56.5 µM | SW-620 26.6 µM | TK-10 23.9 µM | UACC-62 22.9 µM

COC(=O)C(=O)CC(=O)CCn1[nH]c(=O)c(Cl)c(Cl)c1=O
inactive: EKVX > 100 µM | HOP-92 > 100 µM | K562 > 100 µM | KM12 > 100 µM | NCI-H226 > 100 µM | OVCAR-3 > 100 µM | OVCAR-5 > 100 µM | SF-268 > 100 µM | SK-MEL-5 > 100 µM | SNB-19 > 100 µM | SW-620 > 100 µM | TK-10 > 100 µM | UACC-257 > 100 µM | UACC-62 > 100 µM

c1ccc2c(c1)SC(=C1Sc3ccccc3S1)S2
inactive: EKVX > 100 µM | HOP-92 61.7 µM | K562 > 100 µM | OVCAR-3 > 100 µM | SF-268 > 100 µM | SK-OV-3 > 100 µM | SNB-19 > 100 µM | SW-620 > 100 µM | TK-10 > 100 µM | UACC-62 > 100 µM

CC(C)(C)C1CCC(O)(c2ccccc2)CC1 (stereo not drawn)
inactive: EKVX > 100 µM | K562 47.6 µM | KM12 > 100 µM | NCI-H226 > 100 µM | OVCAR-3 70.1 µM | OVCAR-5 > 100 µM | SK-MEL-5 38.3 µM | SK-OV-3 > 100 µM | SNB-19 > 100 µM | SW-620 > 100 µM | TK-10 > 100 µM | UACC-257 54.6 µM | UACC-62 > 100 µM
